# Test system: cornea neuron fibers of scratched corneas
# Assay: Cornea scratch model, cornea neuron regeneration on flatmounts (Example 1)
# Assay type: in vivo, mice
# Details: eye drops 3 times per day for 5 days, corneas harvested on the 7th day, beta III tubulin staining
# Protocol: Nine mice were divided into three treatment groups having three mice each. The corneas of each of the mice in each of the groups were scratched. The control group was administered a standard blank (e.g. pacebo) composition. The first treatment group received pergolide. The second treatment group received cabergoline. Each of the eye drops was applied 3 times per day for 5 days. The corneas were harvested on the 7th day. The corneas were then fixed in acetone for 1 hour at room temperature and then blocked in 3% BSA for 1 hour. The cornea flatmounts were stained with primary antibody, anti-beta III tubulin antibody (rabbit polyclonal, ab18207) at 1:200 in 3% BSA blocking buffer overnight at 4° C. After washing 3 times for 10 minutes, each of the cornea flatmounts were incubated with secondary antibody (goat anti rabbit, Invitrogen Alexa Fluor 555) at 1:200 in 3% BSA for 1 hour at room temperature. The flatmounts were again washed 3 times for 10 minutes each. Images of the cornea neuron fibers were taken and analyzed under EVOS microscopy.
compound,measurement,value
C=CCN1C[C@H](C(=O)N(CCCN(C)C)C(=O)NCC)C[C@@H]2c3cccc4[nH]cc(c34)C[C@H]21 [cabergoline],cornea neuron regeneration compared to the blank control group,no neuron regeneration

# Reference: patent publication US20190008837A1, “OPHTHALMIC COMPOSITIONS AND ASSOCIATED METHODS” (University of Utah Research Foundation, priority 2016, published 2019)
